Experiments:
Naïve CD4 T-cells [1] = test: qPCR of lineage genes in naïve CD4 T-cells cultured with DCCM; type: cell-based, C57BL/6J mice
Source text: (§1) Naïve CD4 T cells were isolated first by sorting with MACS® CD4^+ beads (Miltenyi Biotech, Auburn, Calif.) according to manufacturer's instructions and then by fluorescence activated cell sorting (FACS) using a MoFlo™, Vantage, or Influx™ cell sorter for CD25^−CD44^lowCD62L^high cells using allophycocyanin (APC)-conjugated anti-CD25 monoclonal antibody (mAb) (clone PC61.5), FITC-conjugated CD62L mAb (clone MEL-14), and PE-Cy5-conjugated CD44 mAb (clone IM7) (all from eBioscience™, San Diego, Calif.). Cells were grown in complete IMDM (Gibco, Carlsbad, Calif.) supplemented with 10% FBS, 100 μg/mL penicillin, 100 μg/mL streptomycin, 2 mM L-glutamine, 10 mM HEPES, and 1 nM sodium pyruvate, and activated on 48-well tissue-culture plates which had been coated with 4 μg anti-CD3 (clone 2C11) for 3 h at 37° C., then washed 3 times with PBS. Cultures were supplemented with 2 μg/mL anti-CD28 (clone 37-51, a kind gift from J. Allison, Sloan-Kettering Cancer Center) and anti-IL-4 ascites (clone 11B11, a kind gift from T. Moran, Mount Sinai School of Medicine, ATCC number HB188) at 1:500. mAbs 2C11 and 37-51 were purified from hybridoma supernatants by BioXCell Company (West Lebanon, N.H.). When cultured with conditioned medium (CM) from BMDC, T cells were grown in 1:1 CM:fresh complete IMDM. […]
T cells cultured for 48 hours under the indicated conditions were lysed and RNA isolated by TRIzol® extraction (Invitrogen) according to manufacturer's instructions. […] Quantitative real-time, reverse transcription polymerase chain reaction (qPCR) was conducted on an ABI Prism® 7900 instrument (Applied Biosystems, Foster City, Calif.) with primer pairs and probes as follows. […]
Quantitative PCR was performed using TaqMan® quantitative PCR Master Mix at a concentration of 1× (Applied Biosystems). […] “Fold inductions” were calculated using the ΔΔCt method relative to T cells activated under neutral conditions (No cytokines or CM). […]

Naïve CD4 T-cells [2] = test: In vitro T-cell differentiation in DC conditioned medium, IL-17/IL-10 in supernatants by ELISA; type: cell-based, C57BL/6J mice
Method: Bone marrow (BM)-derived GM-CSF DC cultures were grown in RPMI supplemented with GM-CSF and 5% foetal bovine serum (FBS), plus 100 μg/mL penicillin, 100 μg/mL streptomycin, 2 mM L-glutamine, 10 mM HEPES, 1 nM sodium pyruvate, 1×MEM nonessential amino acids, and 2.5 μM β-mercaptoethanol (all from Sigma-Aldrich, St. Louis, Mo.), as previously dcseribed^1. Semi-adherent cells were harvested on ice on day 5 and re-plated immediately in fresh GM-CSF medium at 1×10^6 cells/well in 24-well tissue culture-treated plates. Soluble or phagocytic stimuli were added right away to the plates in the same medium and the cells were centrifuged for 2 min at 2000 rpm. Supernatants (conditioned medium, CM) were collected after 18 hours. LPS (from E. coli, serotype 055:B5, L-2880) was purchased from Sigma-Aldrich. BMDC were treated with various doses of soluble LPS or 2:1 A20 LPS blasts:DC to titrate the LPS such that levels of IL-6 produced by DC in response to these stimuli was similar. Soluble LPS was used at a final concentration of 1 ng/mL. The A20 B-cell line was obtained from the ATCC (TIB-208). A20 LPS blasts were prepared by culturing A20 cells at 1×10^6 cells/mL, 3 mL/well in 6-well tissue culture plates for four days in RPMI medium supplemented with 10% FBS, with 100 μg/mL penicillin, 100 μg/mL streptomycin, 2 mM L-glutamine, 10 mM HEPES, 1 nM sodium pyruvate, plus 25 μg/mL LPS, as previously described in Blander, J. M. and Medzhitov, R. (2004) Science 304(5673):1014. […] Cells were centrifuged, counted, and apoptosis was induced by UV irradiation at 350 mJ. […]
Naïve CD4 T cells were isolated first by sorting with MACS® CD4^+ beads (Miltenyi Biotech, Auburn, Calif.) according to manufacturer's instructions and then by fluorescence activated cell sorting (FACS) using a MoFlo™, Vantage, or Influx™ cell sorter for CD25^−CD44^lowCD62L^high cells using allophycocyanin (APC)-conjugated anti-CD25 monoclonal antibody (mAb) (clone PC61.5), FITC-conjugated CD62L mAb (clone MEL-14), and PE-Cy5-conjugated CD44 mAb (clone IM7) (all from eBioscience™, San Diego, Calif.). […]

Bone marrow DC = test: TGF-β bioassay of DC conditioned medium (MFB-F11 SBE-SEAP reporter cells); type: cell-based, mice
Method: Analysis of bioactive TGF-β was performed as previously described in Tesseur, I. et al. (2006) BMC Cell Biol 7: 15. MFB-F11 mouse fibroblast cells stably transfected with a reporter plasmid consisting of TGF-β-responsive Smad-binding elements coupled to a secreted alkaline phosphatase reporter gene (SBE-SEAP) were seeded at 3×10^4 cells/well in 96-well flat bottom tissue culture plates and cultured overnight in DMEM supplemented with 10% FBS and penicillin/streptomycin (DMEM/P/S). Cells were washed twice with PBS and incubated in 50 μL serum-free DMEM for 2 hours. Conditioned medium from DC was diluted 1:5 in serum-free DMEM/P/S and 5 μL was added to the MFB-F11 cells. For detection of total TGF-β, diluted conditioned medium was activated by adding 1.5 μL 6M HCl to 150 μL of sample and incubating 10 minutes at room temperature. Neutralization was performed by adding 1.5 μL 6M NaOH. […] SEAP activity was measured using Great EscAPe™ SEAP Reporter System 3 (Clontech, Mountain View, Calif.) according to the manufacturer's protocol with 96-well white/flat bottom plates. Luciferase activity was measured with a FLUOStar Optima reader (BMG Labtech, Durham, N.C.). For each sample, the concentration of biologically active TGF-β was calculated as follows: (luciferase activity of bio-active TGF-β/luciferase activity for total TGF-β)×100. […]

Naïve CD4 T-cells [3] = test: CD4 T-cells in DCCM re-plated on anti-CD3 for 48 h with neutralizing mAbs or IL-23, cytokines by ELISA; type: cell-based, C57BL/6J mice; conditions: re-stimulation for 48 h in the presence of 10 ng/mL IL-23
Source text: as §1, with “PBS.” for “PBS. Cultures were supplemented with 2 μg/mL anti-CD28 (clone 37-51, a kind gift from J. Allison, Sloan-Kettering Cancer Center) and anti-IL-4 ascites (clone 11B11, a kind gift from T. Moran, Mount Sinai School of Medicine, ATCC number HB188) at 1:500. mAbs 2C11 and 37-51 were purified from hybridoma supernatants by BioXCell Company (West Lebanon, N.H.). When cultured with conditioned medium (CM) from BMDC, T cells were grown in 1:1 CM:fresh complete IMDM.”
Next, naïve CD4 T-cells were isolated from C57BL/6J mice and activated with 4 μg anti-CD3 and 2 μg/mL anti-CD28 plus anti-IL-4 with CM from C57BL/6J (WT) BMDC that had phagocytosed apoptotic LPS B cell-blasts. […] Cytokines were quantified in supernatants by ELISA. […]

TGF-β
Foxp3 mRNA induction (Naïve CD4 T-cells [1]; quantitative RT-PCR): highest induction

curdlan
induction of IL-17+ CD4 T-cells (Naïve CD4 T-cells [2]; DC derived from MyD88−/−Trif−/− and Tlr4−/− mice, TGF-β concomitantly present): able to direct induction of IL-17^+ CD4 T-cells

lipopolysaccharide [free LPS]
production of biologically active TGF-β by DC (Bone marrow DC): did not
IL-17 secreting CD4 T-cells (Naïve CD4 T-cells [2]; three days in CM, with IFN-γ neutralizing antibody): some induction of IL-17 secreting (IL-17^+) CD4 T-cells

B1: IL-12: cytokine (eBioscience), 10 ng/mL (protein, UniProt P43431 23-215; P43432 23-335, looked up)
Interleukin-12 subunit alpha: RVIPVSGPARCLSQSRNLLKTTDDMVKTAREKLKHYSCTAEDIDHEDITRDQTSTLKTCLPLELHKNESCLATRETSSTTRGSCLPPQKTSLMMTLCLGSIYEDLKMYQTEFQAINAALQNHNHQQIILDKGMLVAIDELMQSLNHNGETLRQKPPVGEADPYRVKMKLCILLHAFSTRVVTINRVMGYLSSA
Interleukin-12 subunit beta: MWELEKDVYVVEVDWTPDAPGETVNLTCDTPEEDDITWTSDQRHGVIGSGKTLTITVKEFLDAGQYTCHKGGETLSHSHLLLHKKENGIWSTEILKNFKNKTFLKCEAPNYSGRFTCSWLVQRNMDLKFNIKSSSSSPDSRAVTCGMASLSAEKVTLDQRDYEKYSVSCQEDVTCPTAEETLPIELALEARQQNKYENYSTSFFIRDIIKPDPPKNLQMKPLKNSQVEVSWEYPDSWSTPHSYFSLKFFVRIQRKKEKMKETEEGCNQKGAFLVEKTSTEVQCKGGNVCVQAQDRYYNSSCSKWACVPCRVRS
expression of TH1 lineage-specific transcription factor T-bet (Naïve CD4 T-cells [1]; qPCR after 48 hours of culture): expressed the TH1 lineage-specific transcription factor

B2: IL-23: cytokine (eBioscience), 10 ng/mL (protein, UniProt Q9EQ14 22-196; P43432 23-335, looked up)
Interleukin-23 subunit alpha: VPRSSSPDWAQCQQLSRNLCMLAWNAHAPAGHMNLLREEEDEETKNNVPRIQCEDGCDPQGLKDNSQFCLQRIRQGLAFYKHLLDSDIFKGEPALLPDSPMEQLHTSLLGLSQLLQPEDHPRETQQMPSLSSSQQWQRPLLRSKILRSLQAFLAIAARVFAHGAATLTEPLVPTA
Interleukin-12 subunit beta: B1 Interleukin-12 subunit beta
levels of IL-17 produced (Naïve CD4 T-cells [3]): only slightly increased the levels of IL-17 produced
total levels of IL-10 produced (Naïve CD4 T-cells [3]): markedly impaired
